{
  "source": "paper PMC4402242",
  "about": "(Chemico-biological interactions, 2014)",
  "key": {"[1]": {"tested_on": "isolated renal cortical cells (IRCC)", "experiment": "LDH release from isolated renal cortical cells", "settings": "for Effect of pretreatment on 4-A2CP cytotoxicity: pretreatment concentration and time per Table 1; for LDH (% Release) Pretreatment: pretreatment compound alone, plus 4-A2CP vehicle; for LDH (% Release) Pretreatment / direct nephrotoxic potential of the aminophenols in decreasing order / LDH (% Release) 4-A2CP: 1 h; for LDH (% Release) Pretreatment / LDH (% Release) 4-A2CP: mean ± S.E.; for direct nephrotoxic potential of the aminophenols in decreasing order / Cytotoxicity (LDH release) in words / LDH (% Release) 4-A2CP: IRCC; for direct nephrotoxic potential of the aminophenols in decreasing order: 0.5 and 1.0 mM; for Cytotoxicity (LDH release) in words: aminophenol 0.5 mM, 1 h (Fig. 2); for LDH (% Release) 4-A2CP: % of total LDH"}, "peroxidase": {"tested_on": "peroxidase", "settings": "cited from earlier work"}, "[2]": {"tested_on": "Sprague-Dawley rat hepatocytes", "settings": "cited from earlier work"}, "[3]": {"tested_on": "rat renal proximal tubules", "settings": "rat renal proximal tubules with hepatic subcellular fractions; cited from earlier work"}, "[4]": {"tested_on": "Fischer 344 rat renal cortical slices", "settings": "cited from earlier work"}, "LLC-PK1 cells": {"tested_on": "LLC-PK1 cells", "settings": "cited from earlier work"}, "[5]": {"tested_on": "isolated renal cortical cells (IRCC)"}},
  "note": "Where “and” joins values, the source holds several entries; their conditions need not be identical. Identical values can stand only once. Like-named read-outs stand apart in the source and are kept apart here. Marks after values point to notes of the source that are not given here.",
  "data": [
    {"smiles": "CC(C)(C(=O)c1cccnc1)c1cccnc1", "note": "[Metyrapone]", "values": [
      {"measurement": "Effect of pretreatment on 4-A2CP cytotoxicity", "setting": "[1]; 4-A2CP 0.5 mM", "value": "potentiated"},
      {"measurement": "Effect of pretreatment on 4-A2CP cytotoxicity", "setting": "[1]; 4-A2CP 1.0 mM", "value": "no potentiation or attenuation"},
      {"measurement": "LDH (% Release) Pretreatment", "setting": "[1]; 1.0 mM", "value": "21.3 ± 0.6% and 20.6 ± 0.9%"},
      {"measurement": "peroxidase inhibitor properties", "setting": "peroxidase", "value": "but not metyrapone"}
    ]},
    {"smiles": "Nn1nnc2ccccc21", "note": "[1-aminobenzotriazole]", "values": [
      {"measurement": "Effect on 4-AP metabolism", "setting": "[2]", "value": "did not alter"},
      {"measurement": "Effect on 4-AP nephrotoxicity", "setting": "[3]", "value": "did not alter"}
    ]},
    {"smiles": "Cc1c(C)c2c(c(C)c1O)CC[C@@](C)(CCC[C@H](C)CCC[C@H](C)CCCC(C)C)O2", "note": "[α-Tocopherol]", "values": [
      {"measurement": "Effect on 4-A2,6-DCP cytotoxicity", "setting": "[4]", "value": "unable to attenuate"}
    ]},
    {"smiles": "CC(=O)N1CCN(c2ccc(OCC3COC(Cn4ccnc4)(c4ccc(Cl)cc4Cl)O3)cc2)CC1", "note": "(stereo not shown) [Ketoconazole]", "values": [
      {"measurement": "LDH (% Release) Pretreatment", "setting": "[1]; 0.1 mM", "value": "22.4 ± 0.9% and 26.1 ± 1.7%"}
    ]},
    {"smiles": "CCCCOCCOCCOCc1cc2c(cc1CCC)OCO2", "note": "[Piperonyl butoxide]", "values": [
      {"measurement": "Effect of pretreatment on 4-A2CP cytotoxicity", "setting": "[1]; 4-A2CP 0.5 and 1.0 mM", "value": "attenuated"},
      {"measurement": "LDH (% Release) Pretreatment", "setting": "[1]; 1.0 mM", "value": "19.1 ± 2.5% and 25.0 ± 1.0%"},
      {"measurement": "peroxidase inhibitor properties", "setting": "peroxidase", "value": "has peroxidase inhibitor properties"}
    ]},
    {"smiles": "Nc1cc(Cl)c(O)c(Cl)c1", "note": "[4-A2,6DCP, 4-amino-2,6-dichlorophenol]", "values": [
      {"measurement": "direct nephrotoxic potential of the aminophenols in decreasing order", "setting": "[1]", "value": "4-A2,6DCP > 4-A2CP > 4-AP > 4-A3CP"},
      {"measurement": "Cytotoxicity (LDH release) in words", "setting": "[1]", "value": "marked cytotoxicity was observed"}
    ]},
    {"smiles": "Cn1cc[nH]c1=S", "note": "[Methimazole]", "values": [
      {"measurement": "LDH (% Release) Pretreatment", "setting": "[1]; 1.0 mM", "value": "22.0 ± 0.5% and 19.7 ± 2.2%"}
    ]},
    {"smiles": "O=C1O[C@H]([C@@H](O)CO)C(O)=C1O", "note": "[Ascorbate]", "values": [
      {"measurement": "Effect of pretreatment on 4-A2CP cytotoxicity", "setting": "[1]; 4-A2CP 0.5 and 1.0 mM", "value": "attenuated"}
    ]},
    {"smiles": "Nc1ccc(O)cc1Cl", "note": "[4-A3CP, 4-amino-3-chlorophenol]", "values": [
      {"measurement": "direct nephrotoxic potential of the aminophenols in decreasing order", "setting": "[1]", "value": "4-A2,6DCP > 4-A2CP > 4-AP > 4-A3CP"},
      {"measurement": "Cytotoxicity (LDH release) in words", "setting": "[1]", "value": "Cytotoxicity was not observed"}
    ]},
    {"smiles": "NNC(=O)c1ccncc1", "note": "[Isoniazid]", "values": [
      {"measurement": "Effect of pretreatment on 4-A2CP cytotoxicity", "setting": "[1]; 4-A2CP 0.5 and 1.0 mM", "value": "No alteration"},
      {"measurement": "LDH (% Release) Pretreatment", "setting": "[1]; 1.0 mM", "value": "18.6 ± 0.7% and 20.7 ± 0.9%"}
    ]},
    {"smiles": "N[C@@H](CCC(=O)N[C@@H](CS)C(=O)NCC(=O)O)C(=O)O", "note": "[Glutathione]", "values": [
      {"measurement": "Effect of pretreatment on 4-A2CP cytotoxicity", "setting": "[1]; 4-A2CP 1.0 mM", "value": "completely attenuated"}
    ]},
    {"smiles": "Cc1cc(C(C)(C)C)c(O)c(C(C)(C)C)c1", "note": "[BHT, butylated hydroxytoluene]", "values": [
      {"measurement": "Effect on 4-AP cytotoxicity", "setting": "LLC-PK1 cells", "value": "did not prevent"}
    ]},
    {"smiles": "O=C(O)CC(S)C(=O)O", "note": "(stereo not shown) [Mercaptosuccinate, mercaptosuccinic acid]", "values": [
      {"measurement": "Effect of pretreatment on 4-A2CP cytotoxicity", "setting": "[5]", "value": "attenuated"}
    ]},
    {"smiles": "Nc1ccc(O)c(Cl)c1", "note": "[4-A2CP, 4-amino-2-chlorophenol]", "values": [
      {"measurement": "LDH (% Release) 4-A2CP", "setting": "[1]; 4-A2CP 0.5 mM alone", "value": "33.0 ± 2.7 ^b % and 52.0 ± 2.5 ^b % and 39.5 ± 0.6 ^b % and 43.0 ± 1.4 ^b % and 38.3 ± 4.9 ^b % and 43.5 ± 3.2 ^b %"},
      {"measurement": "LDH (% Release) 4-A2CP", "setting": "[1]; 4-A2CP 1.0 mM alone", "value": "42.6 ± 0.6 ^b % and 54.4 ± 2.3 ^b % and 51.3 ± 3.2 ^b % and 51.4 ± 4.9 ^b % and 53.9 ± 6.5 ^b % and 49.9 ± 4.3 ^b %"},
      {"measurement": "direct nephrotoxic potential of the aminophenols in decreasing order", "setting": "[1]", "value": "4-A2,6DCP > 4-A2CP > 4-AP > 4-A3CP"},
      {"measurement": "Cytotoxicity (LDH release) in words", "setting": "[1]", "value": "marked cytotoxicity was observed"}
    ]},
    {"smiles": "CCCCCCCCN", "note": "[N-Octylamine]", "values": [
      {"measurement": "Effect of pretreatment on 4-A2CP cytotoxicity", "setting": "[1]; 4-A2CP 0.5 and 1.0 mM", "value": "No alteration"},
      {"measurement": "LDH (% Release) Pretreatment", "setting": "[1]; 0.2 mM", "value": "27.5 ± 1.1% and 20.0 ± 0.9%"}
    ]},
    {"smiles": "CC(=O)N[C@@H](CS)C(=O)O", "note": "[N-Acetyl-L-cysteine]", "values": [
      {"measurement": "Effect of pretreatment on 4-A2CP cytotoxicity", "setting": "[1]; 4-A2CP 1.0 mM", "value": "partially attenuated"}
    ]},
    {"smiles": "c1ccc(Nc2ccc(Nc3ccccc3)cc2)cc1", "note": "[DPPD, N,N’-diphenyl-p-phenylenediamine]", "values": [
      {"measurement": "Effect on 4-A2,6-DCP cytotoxicity", "setting": "[4]", "value": "unable to attenuate"},
      {"measurement": "Effect of pretreatment on 4-A2CP cytotoxicity", "setting": "[5]", "value": "did not reduce"}
    ]}
  ]
}
